Patent US20250051375A1, “ANTI-HIV COMPOUNDS” (Gilead Sciences, Inc., priority 2023, published 2025)
Converted amounts (≈) assume the structure as drawn.

Legend:
HIV-1 IIIB strain = assay: MT-4 HIV Wild Type Virus Infection Assay (IIIB Virus); type: cell-based; conditions: MT-4 cells acutely infected with HIV-1 IIIB, 5 day incubation, Cell-titer glo
Protocol: Test compounds and controls were serially diluted and spotted in replicate into 384 well black assay plates via acoustic transfer (Echo). MT-4 cells were grown in batch, centrifuged and resuspended into fresh CCM media (RPMI w/10% FBS, 1% PS) at 2×10^6 cells/ml. MT-4 cells were acutely infected with HIV-1 IIIB strain. The size of each infection mix was scaled by the number of sample plates to be tested. Each infection mix was transferred into 5 mL closed tubes and nutated rapidly on a shaker at 37° C. incubator for 1 hour. The infection mixes were then diluted 25× in fresh cell culture media and then added to assay plates at 40 μL per well using a ViaFlo 384 pipettor. After 5 day incubation at 37° C. in a CO2 incubator, assay plates were processed with Cell-titer glo reagent using a ViaFlo 384 with an addition/mixing program. Plates were read immediately on Envision reader. Assay signals were plotted and dose response curves generated to determine individual compound EC50s.

[1] = molecular target: bovine intestinal alkaline phosphatase (Bos taurus (Bovine), UniProt P19111); assay: BiALP: conversion by bovine intestinal alkaline phosphatase; type: in vitro ADME; conditions: 2 μM substrate, 100 ng/mL iALP, Tris pH 7.8, 37° C., 60 minutes; for [Intermediate A] or [Amprenavir]: parent formed
Protocol: Fosamprenavir and its parent compound (amprenavir) were purchased from Millipore Sigma (St. Louis, MO). Test compounds, Intermediate A, fosamprenavir, and amprenavir were each separately dissolved in dimethyl sulfoxide (DMSO) at a concentration of 10 mM to form stock solutions.
All other chemicals were purchased from Millipore Sigma (St. Louis, MO) and Thermo Fisher Scientific (Waltham, MA). […] Internal Standard/Quench (IS/Q) was 100 nM labetalol in 99:1 (v/v) acetonitrile/formic acid.
Incubations were performed with Tris buffer alone (0.1 M Tris-HCl pH 7.8 containing 1 mM MgCl2 and 1 mM ZnCl2) or the same Tris buffer further containing 100 ng/mL iALP (0.01 units/mL). Triplicate 100 μL aliquots of Tris buffer±iALP were warmed to 37° C. and the reactions were initiated by the addition of the test compound or fosamprenavir to obtain final substrate concentrations of 2 μM. Incubations were then continued at 37° C. At 60 minutes, reactions were terminated by the addition of 200 μl of IS/Q and mixed by pipette. […] Aliquots (150 μL) of the supernatants were transferred to fresh plates containing 150 μL of water. Aliquots (15 μL) of the diluted supernatants were analyzed by mass spectrometry as described below.
Quantification of the test compounds and fosamprenavir was performed by analyte/internal standard peak area ratios (PARs) with comparison to 2 μM Intermediate A and amprenavir, respectively. The LC instrumentation consisted of a Thermo Scientific Vanquish pump and a Thermo Hypersil Gold column (1.9 μm particle size, 2.1×50 mm). […] The MS instrument was a Thermo Q Exactive™ Plus operating in positive ionization mode with mass tolerance of 5 ppm and calibrated on a twice weekly basis.

PBS Stability Assay = type: physicochemical; conditions: phosphate buffered saline pH 7.4; for PBS T½: 2 μM; for half-life at 2 μM: buffer, pH 7.4, 2 μM, read-out: PBS T½
Protocol: Reagents. Stock solutions of test compounds in dimethyl sulfoxide (DMSO) having a final concentration of 10 mM were prepared and used in all experiments. Sekisui XenoTech (Kansas City, KS) provided pooled intestinal S9 fractions. All other chemicals were purchased from Sigma-Aldrich (St. Louis, MO) or VWR (West Chester, PA). Internal Standard/Quench (IS/Q) used to stop reactions was 100 nM labetalol in (by volume) formic acid (1%) and acetonitrile (99%).
PBS Stability Assay: For each test compound, an aliquot of the test compound was added to phosphate buffered saline (137 mM NaCl, 2.7 mM KCl, 10 mM phosphate buffer), pH 7.4. The incubation was initiated by the addition of the test compound to PBS to a final concentration of 2 μM. At 0, 10, 20, 30, 60 and 120 min, 25 μL aliquots of the incubation mixture were transferred to plates containing 225 μl of IS/Q solution. After quenching, the plates were centrifuged at 3000×g for 30 minutes. 150 μL aliquots of each supernatant were transferred to new plates and 150 μL water was added. Aliquots (10 μL) of the prepared samples were analyzed on a Thermo Q-Exactive mass spectrometer as described below.
Liquid Chromatography-Mass Spectrometry: Quantification of test compounds and control substrate was performed by analyte/internal standard peak area ratio (PAR) values measured on a Thermo Q-Exactive mass spectrometer coupled to a Dionex UltiMate 3000 HPLC with a Leap Technologies HTC PAL autosampler. The column used for analysis was a Thermo Scientific Hypersil GOLD (1.9 μm particle size, 50×2.1 mm). Mobile phase A consisted of 0.1% (v/v) formic acid in water. Mobile phase B consisted of 0.1% (v/v) formic acid in acetonitrile. Elution of analytes was achieved by a series of linear gradients varying the proportions of A and B. The mass spectrometer was calibrated on a weekly basis and mass tolerance of 5 ppm was used.
Data Analysis. Metabolic stabilities were determined by measuring the rates of disappearance of test compound and positive control substrate. Data (% of substrate remaining) were plotted on a semi-log scale and fitted using an exponential decline model:
where • Ct% of substrate remaining at time=t • C0% of substrate remaining at time=0 • t time • T½ half-life • The Half-life (T½) is determined by the following equation:
[formula] • Assuming a first-order reaction, the slope (k) is extrapolated from the aforementioned plotted data.

Solubility in FaSSIF = conditions: 23 °C, pH 6.5, fassif, thermodynamic from solid
Protocol: Buffer Preparation: Fasted State Simulated Intestinal Fluid (FaSSIF): Simulated Intestinal Fluid (SIF) powder containing a complex of Taurocholate and Lecithin (4:1 molar ratio) was obtained from Biorelevant. 0.056 g of SIF powder was added to 25 mL of buffer, adjusted to pH 6.5, containing 0.011 g of NaOH (pellets), 0.099 g of NaH2PO4 (monohydrate), and 0.155 g of NaCl. The buffer was prepared with HPLC H2O. The SIE powder was stirred until completely dissolved and allowed to stand for 2 hours.
Test Compounds: Each test compound was placed in a vial containing approximately 7 mg of material. Aliquots were weighed out for each assay media at each time point to be analyzed. The buffer was added to each vial such that the final dose concentration of 5 mg/mL was achieved. Samples were then vortexed for 5-10 seconds.
The plate was sealed with a pierceable heat seal and analyzed by HPLC-UV.

[2] = Human immunodeficiency virus 1, IIIB, MT4, 120 h

Chain of bovine intestinal alkaline phosphatase (P19111 20-506): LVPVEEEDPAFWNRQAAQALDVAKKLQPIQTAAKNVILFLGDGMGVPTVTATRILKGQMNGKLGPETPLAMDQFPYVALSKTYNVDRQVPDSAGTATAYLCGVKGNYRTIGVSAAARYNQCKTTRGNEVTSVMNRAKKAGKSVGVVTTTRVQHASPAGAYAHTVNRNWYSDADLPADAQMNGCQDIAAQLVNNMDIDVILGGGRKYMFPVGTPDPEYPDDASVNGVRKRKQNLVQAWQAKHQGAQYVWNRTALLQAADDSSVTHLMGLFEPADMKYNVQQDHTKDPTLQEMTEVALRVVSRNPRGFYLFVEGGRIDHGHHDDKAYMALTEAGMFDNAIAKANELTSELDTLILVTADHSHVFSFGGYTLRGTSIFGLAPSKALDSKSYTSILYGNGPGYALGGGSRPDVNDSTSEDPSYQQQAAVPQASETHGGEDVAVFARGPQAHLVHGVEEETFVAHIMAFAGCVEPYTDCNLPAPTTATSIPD

SMILES	EC50 (HIV-1 IIIB strain; [2]) [nM]	[Compound] [1] [nM]	biALP Intermediate A or [Amprenavir] (% of total) [1]	[Intermediate A] or [Amprenavir] [1] [nM]	PBS T½ (PBS Stability Assay) [h]	solubility at 2 h (Solubility in FaSSIF) [µg/mL]	half-life at 2 μM (PBS Stability Assay) [h]	EC50 (HIV-1 IIIB strain) [nM]
COC(=O)N[C@H](C(=O)N[C@@H](Cc1ccc(C#Cc2cnc(N3CC4CCC(C3)N4C3COC3)nc2)cc1)[C@H](CN(Cc1c(F)cc(-c2ccn(C(F)F)n2)cc1F)NC(=O)[C@@H](NC(=O)OC)C(C)(C)C(F)(F)F)OC(=O)OCOC(=O)CC(C)(C)c1c(CC(=O)NCCS(=O)(=O)O)cc(C)cc1OP(=O)(O)O)C(C)(C)C(F)(F)F [Example 21]	3.6	1281.9	44.7 % of total	1034.6	13.2	4340 (≈ 2610 µM)	–	–
COC(=O)N[C@H](C(=O)N[C@@H](Cc1ccc(C#Cc2cnc(N3CC4CCC(C3)N4C3COC3)nc2)cc1)[C@H](CN(Cc1c(F)cc(-c2ccn(C(F)F)n2)cc1F)NC(=O)[C@@H](NC(=O)OC)C(C)(C)C(F)(F)F)OC(=O)OCOC(=O)CC(C)(C)c1c(CC(=O)NCC(=O)NS(C)(=O)=O)cc(C)cc1OP(=O)(O)O)C(C)(C)C(F)(F)F [Example 22]	9.9	1221.6	54.6 % of total	1468.7	–	4720 (≈ 2790 µM)	6.22	–
COC(=O)N[C@H](C(=O)N[C@@H](Cc1ccc(C#Cc2cnc(N3CC4CCC(C3)N4C3COC3)nc2)cc1)[C@H](CN(Cc1c(F)cc(-c2ccn(C(F)F)n2)cc1F)NC(=O)[C@@H](NC(=O)OC)C(C)(C)C(F)(F)F)OC(=O)CC(C)(C)c1c(CC(=O)NCCCS(=O)(=O)O)cc(C)cc1OP(=O)(O)O)C(C)(C)C(F)(F)F [Example 25]	62.7	2023.7	–	–	–	2410 (≈ 1500 µM)	1.37	–
COC(=O)N[C@H](C(=O)N[C@@H](Cc1ccc(C#Cc2cnc(N3CC4CCC(C3)N4C3COC3)nc2)cc1)[C@H](CN(Cc1c(F)cc(-c2ccn(C(F)F)n2)cc1F)NC(=O)[C@@H](NC(=O)OC)C(C)(C)C(F)(F)F)OC(=O)CC(C)(C)c1c(CC(=O)NCCC(=O)O)cc(C)cc1OP(=O)(O)O)C(C)(C)C(F)(F)F [Example 26]	96.9	1764	–	–	–	1440 (≈ 923 µM)	2.44	–
COC(=O)N[C@H](C(=O)N[C@@H](Cc1ccc(C#Cc2cnc(N3CC4CCC(C3)N4C3COC3)nc2)cc1)[C@H](CN(Cc1c(F)cc(-c2ccn(C(F)F)n2)cc1F)NC(=O)[C@@H](NC(=O)OC)C(C)(C)C(F)(F)F)OC(=O)CC(C)(C)c1c(CC(=O)NC(CP(=O)(O)O)C(=O)O)cc(C)cc1OP(=O)(O)O)C(C)(C)C(F)(F)F (stereo partly drawn) [Example 34]	179	2238.2	–	–	–	4810 (≈ 2940 µM)	5.08	–
COC(=O)N[C@H](C(=O)N[C@@H](Cc1ccc(C#Cc2cnc(N3CC4CCC(C3)N4C3COC3)nc2)cc1)[C@H](CN(Cc1c(F)cc(-c2ccn(C(F)F)n2)cc1F)NC(=O)[C@@H](NC(=O)OC)C(C)(C)C(F)(F)F)OC(=O)CC(C)(C)c1c(CC(=O)N(CCCC(=O)O)CCC(=O)O)cc(C)cc1OP(=O)(O)O)C(C)(C)C(F)(F)F [Example 36]	97.4	1383.3	–	–	–	4260 (≈ 2590 µM)	10.9	–
COC(=O)N[C@H](C(=O)N[C@@H](Cc1ccc(C#Cc2cnc(N3CC4CCC(C3)N4C3COC3)nc2)cc1)[C@H](CN(Cc1c(F)cc(-c2ccn(C(F)F)n2)cc1F)NC(=O)[C@@H](NC(=O)OC)C(C)(C)C(F)(F)F)OC(=O)CC(C)(C)c1c(CC(=O)NC(CCCC(=O)O)CC(=O)O)cc(C)cc1OP(=O)(O)O)C(C)(C)C(F)(F)F (stereo partly drawn) [Example 37]	41.8	1518.9	–	–	–	4460 (≈ 2720 µM)	7.32	–
COC(=O)N[C@H](C(=O)N[C@@H](Cc1ccc(C#Cc2cnc(N3CC4CCC(C3)N4C3COC3)nc2)cc1)[C@H](CN(Cc1c(F)cc(-c2ccn(C(F)F)n2)cc1F)NC(=O)[C@@H](NC(=O)OC)C(C)(C)C(F)(F)F)OC(=O)CC(C)(C)c1c(CC(=O)NC(CCCC(=O)O)C(=O)O)cc(C)cc1OP(=O)(O)O)C(C)(C)C(F)(F)F (stereo partly drawn) [Example 42]	–	1335	–	–	6.025	4020 (≈ 2470 µM)	–	49.1
COC(=O)N[C@H](C(=O)N[C@@H](Cc1ccc(C#Cc2cnc(N3CC4CCC(C3)N4C3COC3)nc2)cc1)[C@H](CN(Cc1c(F)cc(-c2ccn(C(F)F)n2)cc1F)NC(=O)[C@@H](NC(=O)OC)C(C)(C)C(F)(F)F)OC(=O)CC(C)(C)c1c(CC(=O)NC(CC(=O)O)CC(=O)O)cc(C)cc1OP(=O)(O)O)C(C)(C)C(F)(F)F [Example 43]	85.9	1661.5	–	–	–	1920 (≈ 1190 µM)	4.82	–
COC(=O)N[C@H](C(=O)N[C@@H](Cc1ccc(C#Cc2cnc(N3CC4CCC(C3)N4C3COC3)nc2)cc1)[C@H](CN(Cc1c(F)cc(-c2ccn(C(F)F)n2)cc1F)NC(=O)[C@@H](NC(=O)OC)C(C)(C)C(F)(F)F)OC(=O)CC(C)(C)c1c(CC(=O)N(CCC(=O)O)[C@@H](CCC(=O)O)C(=O)O)cc(C)cc1OP(=O)(O)O)C(C)(C)C(F)(F)F [Example 44]	528	1835.9	–	–	–	4550 (≈ 2700 µM)	4.67	–
COC(=O)N[C@H](C(=O)N[C@@H](Cc1ccc(C#Cc2cnc(N3CC4CCC(C3)N4C3COC3)nc2)cc1)[C@H](CN(Cc1c(F)cc(-c2ccn(C(F)F)n2)cc1F)NC(=O)[C@@H](NC(=O)OC)C(C)(C)C(F)(F)F)OC(=O)CC(C)(C)c1c(CC(=O)N[C@@H](Cc2c[nH]c3ccccc23)C(=O)O)cc(C)cc1OP(=O)(O)O)C(C)(C)C(F)(F)F [Example 48]	201	2071.6	–	–	–	910 (≈ 545 µM)	4.76	–
